Measurements as given in ChEMBL document CHEMBL3132822, “Novel 1-(1-benzyl-1H-indol-3-yl)-N,N,N-trimethylmethanaminium iodides are competitive antagonists for the human 42 and 7 nicotinic acetylcholine receptors” (Medchemcomm, 2013).

What was measured:
[1] = biological target: T1, Neuronal acetylcholine receptor; alpha4/beta2 (Homo sapiens, UniProt P17787+P43681); assay: Antagonist activity at human alpha4beta2 nAChR expressed in HEK293 cells assessed as (+/-)-epibatidine-induced Ca2+ influx; assay type: cell-based
T1 sequence (P17787 whole entry): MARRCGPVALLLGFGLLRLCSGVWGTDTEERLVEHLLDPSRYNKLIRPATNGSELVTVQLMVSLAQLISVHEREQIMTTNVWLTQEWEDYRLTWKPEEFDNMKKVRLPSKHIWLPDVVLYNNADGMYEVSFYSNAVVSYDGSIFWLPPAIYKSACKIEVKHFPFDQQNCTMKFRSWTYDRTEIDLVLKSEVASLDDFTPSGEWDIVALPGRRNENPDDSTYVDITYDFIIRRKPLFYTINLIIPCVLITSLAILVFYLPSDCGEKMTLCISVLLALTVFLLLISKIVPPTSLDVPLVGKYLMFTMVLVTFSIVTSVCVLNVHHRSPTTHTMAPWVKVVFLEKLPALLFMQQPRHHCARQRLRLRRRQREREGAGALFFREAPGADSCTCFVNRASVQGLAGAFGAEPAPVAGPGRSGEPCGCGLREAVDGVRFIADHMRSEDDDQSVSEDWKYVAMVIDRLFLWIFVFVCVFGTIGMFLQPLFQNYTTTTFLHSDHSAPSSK
T1 sequence (P43681 whole entry): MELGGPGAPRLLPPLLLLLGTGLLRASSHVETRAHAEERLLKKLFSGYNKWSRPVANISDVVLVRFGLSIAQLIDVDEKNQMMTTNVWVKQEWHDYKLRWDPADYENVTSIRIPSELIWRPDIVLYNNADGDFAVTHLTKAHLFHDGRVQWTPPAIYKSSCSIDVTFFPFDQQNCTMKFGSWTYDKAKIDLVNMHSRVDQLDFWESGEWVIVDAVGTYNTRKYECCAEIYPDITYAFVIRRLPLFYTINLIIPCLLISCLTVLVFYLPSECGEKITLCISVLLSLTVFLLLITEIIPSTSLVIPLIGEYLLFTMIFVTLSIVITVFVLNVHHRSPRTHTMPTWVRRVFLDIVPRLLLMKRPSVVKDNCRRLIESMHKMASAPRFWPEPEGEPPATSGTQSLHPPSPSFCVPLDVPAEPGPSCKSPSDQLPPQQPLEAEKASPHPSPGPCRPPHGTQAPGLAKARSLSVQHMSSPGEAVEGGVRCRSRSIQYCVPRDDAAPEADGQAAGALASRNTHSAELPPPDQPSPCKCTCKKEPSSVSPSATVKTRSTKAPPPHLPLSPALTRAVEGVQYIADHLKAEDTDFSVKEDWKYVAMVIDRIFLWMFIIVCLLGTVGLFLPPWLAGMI

[2] = biological target: T2, Neuronal acetylcholine receptor subunit alpha-7 (Homo sapiens, UniProt P36544); assay: Antagonist activity at human alpha7 nAChR expressed in rat GH3 cells assessed as (+/-)-epibatidine-induced Ca2+ influx; assay type: cell-based
T2 sequence (P36544 whole entry): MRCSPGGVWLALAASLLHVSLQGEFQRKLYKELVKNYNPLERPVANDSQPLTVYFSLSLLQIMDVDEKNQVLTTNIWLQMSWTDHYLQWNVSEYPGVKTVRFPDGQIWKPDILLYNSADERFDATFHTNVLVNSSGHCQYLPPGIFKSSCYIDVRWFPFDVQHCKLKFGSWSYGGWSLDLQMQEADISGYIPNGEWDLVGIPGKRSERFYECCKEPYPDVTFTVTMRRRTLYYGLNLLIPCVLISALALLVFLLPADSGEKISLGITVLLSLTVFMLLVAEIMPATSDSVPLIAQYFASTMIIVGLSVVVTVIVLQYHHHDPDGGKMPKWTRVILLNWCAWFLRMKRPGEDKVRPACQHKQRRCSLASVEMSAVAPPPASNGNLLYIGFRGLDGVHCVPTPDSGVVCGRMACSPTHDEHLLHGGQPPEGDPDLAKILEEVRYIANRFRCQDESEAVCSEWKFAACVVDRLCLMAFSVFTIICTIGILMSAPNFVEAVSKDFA

[3] = organism: Homo sapiens; assay: Selectivity ratio of IC50 for human alpha4beta2 nAChR to IC50 for human alpha7 nAChR
[4] = biological target: T1, Neuronal acetylcholine receptor; alpha4/beta2; assay: Displacement of [3H]cytisine from human alpha4beta2 nAChR; assay type: protein-complex assay
[5] = biological target: T2, Neuronal acetylcholine receptor subunit alpha-7; assay: Displacement of [3H]MLA from human alpha7 nAChR
[6] = biological target: T2, Neuronal acetylcholine receptor subunit alpha-7; assay: Displacement of [3H]imipramine from human alpha7 nAChR
[7] = biological target: T1, Neuronal acetylcholine receptor; alpha4/beta2; assay: Displacement of [3H]imipramine from human alpha4beta2 nAChR; assay type: protein-complex assay

## COc1ccc(Cn2cc(C[N+](C)(C)C)c3ccccc32)cc1O
[1]
  IC50: 9.5 µM
[2]
  IC50: 3.4 µM
[3]
  Ratio IC50: 2.8

## C[N+](C)(C)Cc1cn(Cc2ccc(O)cc2)c2ccccc12
[1]
  IC50: 24.9 µM
[2]
  IC50: 2.2 µM
[4]
  Ki: 0.6 µM
[3]
  Ratio IC50: 11.3
[5]
  Ki: 2.9 µM

## C[N+](C)(C)Cc1cn(Cc2ccc3c(c2)OCO3)c2ccccc12
[1]
  IC50: 3.9 µM
[2]
  IC50: 1.3 µM
[3]
  Ratio IC50: 3

## COc1cc(Cn2cc(C[N+](C)(C)C)c3ccccc32)ccc1O
[1]
  IC50: 9.1 µM
[2]
  IC50: 2.2 µM
[3]
  Ratio IC50: 4.1

## C[N+](C)(C)Cc1cn(Cc2ccccc2)c2ccccc12
[1]
  IC50: 4.2 µM
[2]
  IC50: 2.3 µM
[3]
  Ratio IC50: 1.9

## C[N+](C)(C)Cc1cn(Cc2cccc(O)c2)c2ccccc12
[1]
  IC50: 14.7 µM
[6]
  Ki: 145 µM
[2]
  IC50: 1 µM
[7]
  Ki: 112 µM
[4]
  Ki: 1.6 µM
[3]
  Ratio IC50: 14.7
[5]
  Ki: 0.6 µM

## C[N+](C)(C)Cc1cn(Cc2ccc([N+](C)(C)C)cc2)c2ccccc12
[1]
  IC50: 20 µM
[2]
  IC50: 2.7 µM
[3]
  Ratio IC50: 7.4

## C[n+]1cccc(Cn2cc(C[N+](C)(C)C)c3ccccc32)c1
[1]
  IC50: > 100 µM
[2]
  IC50: 41.3 µM

## COc1ccc(Cn2cc(C[N+](C)(C)C)c3ccccc32)cc1OC
[1]
  IC50: 14.8 µM
[2]
  IC50: 2.2 µM
[3]
  Ratio IC50: 6.7

## COc1ccc(Cn2cc(C[N+](C)(C)C)c3ccccc32)cc1
[1]
  IC50: 4.4 µM
[2]
  IC50: 2 µM
[3]
  Ratio IC50: 2.2
